Laboratory results taken from patent publication US6033823A, “Mutated penicillin G acylase genes” (priority 1994, dated 2000).
Numbering of substitutions follows the chain as printed. pKi: −log10 of the molar value.

How the values were obtained:
[1] = target: T1, Alcaligenes faecalis Penicillin G acylase, wild type (α subunit SEQ ID NO:27, β subunit SEQ ID NO:32) (Alcaligenes faecalis, UniProt O34142); assay: Deacylation kinetics and phenylacetic acid product inhibition, wild type PenG acylase; format: biochemical; conditions: wt AF; from progress curves of NIPAB deacylation, 25° C., 0.1 M NaH2PO4.H2O buffer pH 7.5; read-out: Ki Phenylacetic acid (inhibition constant, dissociation constant)
T1 construct: alpha 202 aa, beta 551 aa; likely recombinant, E. coli host
T1 sequence (O34142 27-228): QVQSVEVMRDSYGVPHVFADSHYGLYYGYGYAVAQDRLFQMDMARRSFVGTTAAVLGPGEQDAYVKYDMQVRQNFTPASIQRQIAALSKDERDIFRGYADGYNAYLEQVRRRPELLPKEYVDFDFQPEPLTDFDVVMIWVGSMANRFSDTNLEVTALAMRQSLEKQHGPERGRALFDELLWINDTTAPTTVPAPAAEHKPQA
T1 sequence (O34142 266-816): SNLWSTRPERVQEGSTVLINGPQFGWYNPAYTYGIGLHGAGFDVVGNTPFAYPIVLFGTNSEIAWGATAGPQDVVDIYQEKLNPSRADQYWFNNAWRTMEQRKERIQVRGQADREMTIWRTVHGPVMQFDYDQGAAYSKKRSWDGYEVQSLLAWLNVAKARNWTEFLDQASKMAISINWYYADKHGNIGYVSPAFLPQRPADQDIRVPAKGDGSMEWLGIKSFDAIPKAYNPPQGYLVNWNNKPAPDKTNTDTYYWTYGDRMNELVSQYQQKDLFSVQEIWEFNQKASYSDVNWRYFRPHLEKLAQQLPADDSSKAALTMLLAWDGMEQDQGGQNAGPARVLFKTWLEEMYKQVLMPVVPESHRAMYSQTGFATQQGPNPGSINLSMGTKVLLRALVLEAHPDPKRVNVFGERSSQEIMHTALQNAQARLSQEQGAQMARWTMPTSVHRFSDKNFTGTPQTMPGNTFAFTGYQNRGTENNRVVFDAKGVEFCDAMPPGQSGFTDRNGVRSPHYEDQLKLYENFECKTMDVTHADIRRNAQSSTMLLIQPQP
Description: In order to determine enzymatic activity the acylases were incubated with substrate at room temperature in buffered solution. In case β-lactamase impurity was expected to be present in the enzyme preparations, 1.0 mM -lactamase inhibitor 6-bromo-penicillanic acid was added to the assay. The reactions were stopped by adding an excess PMSF. For some mutants which were less sensitive to PMSF inhibition, the reactions were stopped by adding 0.5 M HCl or 0.5 M acetic acid until the pH was between 3 and 4. When reactions were subsequently analysed by HPLC, the reactions were stopped by dilution with the correponding elution solvent (see table 1). […]
The composition of the reaction mixtures was determined by high-performanceliquid chromatography (HPLC)(table 1). Concentrations were determined by using standards of known concentration.
In a continuous assay Penicillin G acylase was assayed spectro-fotometrically with the chromogenic substrate NIPAB [6-nitro-3-phenylacetamido-benzoic acid]. The liberation of 3-amino-6-nitrobenzoic acid was monitored by measuring the extinction at 405 nm in a Kontron 610 kinetic spectrofotometer. […]
Initial rate measurements were performed with excess substrate over the enzyme. Catalytic parameters were derived from least-squares fitting of the measured initial rates plotted for various substrate concentrations according to the Michaelis-Menten equation. […]

[2] = target: T2, Alcaligenes faecalis Penicillin G acylase mutant B:L56A (Alcaligenes faecalis, UniProt O34142, L321A); assay: NIPAB kinetics and phenylacetic acid product inhibition, mutant B:L56A; format: biochemical; conditions: from progress curves of NIPAB deacylation, 25° C., 0.1 M NaH2PO4.H2O buffer pH 7.5, read-out: Ki Phenylacetic acid (inhibition constant, dissociation constant)
T2 construct: alpha 202 aa, beta 551 aa; recombinant, E. coli host
T2 sequence (O34142 27-228): T1 sequence (O34142 27-228)
T2 sequence (O34142 266-816 L321A): T1 sequence (O34142 266-816) with L56A
Description: In a continuous assay Penicillin G acylase was assayed spectro-fotometrically with the chromogenic substrate NIPAB [6-nitro-3-phenylacetamido-benzoic acid]. The liberation of 3-amino-6-nitrobenzoic acid was monitored by measuring the extinction at 405 nm in a Kontron 610 kinetic spectrofotometer. Measuring maximal rate, the assays were performed at 25° C. using 20 mM NaH2 PO4.H2 O at pH 7.5 with 20 mM NIPAB and 100 μl enzym solution (at a proper dilution). Initial rate measurements were performed with varying concentration of NIPAB.
Initial rate measurements were performed with excess substrate over the enzyme. Catalytic parameters were derived from least-squares fitting of the measured initial rates plotted for various substrate concentrations according to the Michaelis-Menten equation.
The complete conversion of NIPAB was followed as a funtion of time at 20, 50 and 100 μM NIPAB by following the increase in absorbtion at 405 nm. Products of this conversion are phenylacetic acid and 3-amino-6-nitrobenzoic acid. The conversion was performed at 25° C. in 0.1 M NaH2 PO4.H2 O buffer pH 7.5. The progress curves of the deacylation of NIPAB could be fitted very well when product inhibition by phenylacetic acid was taken into account. […]

## O=C(O)Cc1ccccc1 [phenylacetic acid]
[1]
  pKi: 4.96
[2]
  pKi: 4.23
